The text below walks through data of ChEMBL document CHEMBL5576074, “[1,2,4]Triazolo[1,5-a]pyrimidine derivatives: Structure-activity relationship study leading to highly selective ENPP1 inhibitors” (Bioorg Med Chem Lett, 2024).

SMILES strings stand for the structures. Bounds are passed on as bounds.

The test system of one data set is THP1-Dual. In words: Cytotoxicity against human THP1-Dual cells upto 50 uM. In kind it is toxicity, cell-based.
The target of data set [1] is T1, Ectonucleotide pyrophosphatase/phosphodiesterase family member 3 (Homo sapiens) (UniProt O14638).
T1 sequence (whole entry): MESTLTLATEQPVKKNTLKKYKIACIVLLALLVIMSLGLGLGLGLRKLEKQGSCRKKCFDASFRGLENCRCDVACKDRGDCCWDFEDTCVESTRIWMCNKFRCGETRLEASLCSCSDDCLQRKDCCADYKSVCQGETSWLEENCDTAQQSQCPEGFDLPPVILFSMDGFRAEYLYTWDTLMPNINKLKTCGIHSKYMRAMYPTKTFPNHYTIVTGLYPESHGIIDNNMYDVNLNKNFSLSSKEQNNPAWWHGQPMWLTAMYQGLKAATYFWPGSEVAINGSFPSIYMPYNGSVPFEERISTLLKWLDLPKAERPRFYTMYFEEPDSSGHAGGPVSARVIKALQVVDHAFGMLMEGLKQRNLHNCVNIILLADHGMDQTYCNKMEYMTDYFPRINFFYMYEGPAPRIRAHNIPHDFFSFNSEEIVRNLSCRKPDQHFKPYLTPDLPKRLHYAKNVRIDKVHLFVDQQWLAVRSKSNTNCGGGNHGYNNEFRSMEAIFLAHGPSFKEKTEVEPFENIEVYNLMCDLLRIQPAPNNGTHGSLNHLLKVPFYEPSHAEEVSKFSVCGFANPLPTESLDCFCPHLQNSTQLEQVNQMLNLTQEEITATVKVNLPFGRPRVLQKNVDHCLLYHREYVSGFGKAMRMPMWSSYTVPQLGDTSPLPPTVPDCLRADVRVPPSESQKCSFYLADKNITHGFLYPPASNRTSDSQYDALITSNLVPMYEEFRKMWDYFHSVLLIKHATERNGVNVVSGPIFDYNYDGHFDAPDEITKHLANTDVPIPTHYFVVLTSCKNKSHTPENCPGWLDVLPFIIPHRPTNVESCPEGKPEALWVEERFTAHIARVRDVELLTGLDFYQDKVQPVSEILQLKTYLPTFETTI
In words: Inhibition of ENPP3 (unknown origin) assessed as reduction in 2'3'-cGAMP hydrolysis at 50 uM by AMP-Glo assay relative to control.

In data set [2] the target is T2, Glycerophosphocholine cholinephosphodiesterase ENPP6 (Homo sapiens, UniProt Q6UWR7).
T2 sequence (Q6UWR7 whole entry): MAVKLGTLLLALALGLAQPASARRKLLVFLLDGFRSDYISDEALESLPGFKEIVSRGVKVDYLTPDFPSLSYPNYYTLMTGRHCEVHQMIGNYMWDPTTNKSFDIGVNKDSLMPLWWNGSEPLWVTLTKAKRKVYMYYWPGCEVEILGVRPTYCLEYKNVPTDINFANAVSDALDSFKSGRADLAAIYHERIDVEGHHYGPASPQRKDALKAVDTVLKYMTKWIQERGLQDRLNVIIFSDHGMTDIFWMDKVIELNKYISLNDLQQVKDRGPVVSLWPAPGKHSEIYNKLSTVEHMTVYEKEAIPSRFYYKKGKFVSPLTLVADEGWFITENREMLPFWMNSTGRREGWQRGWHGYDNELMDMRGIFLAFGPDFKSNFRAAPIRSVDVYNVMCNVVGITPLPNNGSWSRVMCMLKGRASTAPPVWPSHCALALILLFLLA
In words: Inhibition of ENPP6 (unknown origin).

Data set [3] concerns the target T3, Ectonucleotide pyrophosphatase/phosphodiesterase family member 3 (Homo sapiens, UniProt O14638).
T3 sequence (O14638 whole entry): T1 sequence (whole entry)
In words: Inhibition of ENPP3 (unknown origin) assessed as reduction in 2'3'-cGAMP hydrolysis by AMP-Glo assay.

The target in data set [4] is T1, Ectonucleotide pyrophosphatase/phosphodiesterase family member 3 (Homo sapiens). In words: Inhibition of ENPP3 (unknown origin) assessed as reduction in ATP hydrolysis at 50 uM by AMP-Glo assay relative to control.
Data set [5] in a line: Cytotoxicity against human HepG2-Dual cells upto 50 uM. In kind it is toxicity, cell-based. To be noted: hepg2, 50 µM.
Data set [6] concerns the target T4, Ectonucleotide pyrophosphatase/phosphodiesterase family member 1 (Homo sapiens, UniProt P22413).
T4 sequence (P22413 whole entry): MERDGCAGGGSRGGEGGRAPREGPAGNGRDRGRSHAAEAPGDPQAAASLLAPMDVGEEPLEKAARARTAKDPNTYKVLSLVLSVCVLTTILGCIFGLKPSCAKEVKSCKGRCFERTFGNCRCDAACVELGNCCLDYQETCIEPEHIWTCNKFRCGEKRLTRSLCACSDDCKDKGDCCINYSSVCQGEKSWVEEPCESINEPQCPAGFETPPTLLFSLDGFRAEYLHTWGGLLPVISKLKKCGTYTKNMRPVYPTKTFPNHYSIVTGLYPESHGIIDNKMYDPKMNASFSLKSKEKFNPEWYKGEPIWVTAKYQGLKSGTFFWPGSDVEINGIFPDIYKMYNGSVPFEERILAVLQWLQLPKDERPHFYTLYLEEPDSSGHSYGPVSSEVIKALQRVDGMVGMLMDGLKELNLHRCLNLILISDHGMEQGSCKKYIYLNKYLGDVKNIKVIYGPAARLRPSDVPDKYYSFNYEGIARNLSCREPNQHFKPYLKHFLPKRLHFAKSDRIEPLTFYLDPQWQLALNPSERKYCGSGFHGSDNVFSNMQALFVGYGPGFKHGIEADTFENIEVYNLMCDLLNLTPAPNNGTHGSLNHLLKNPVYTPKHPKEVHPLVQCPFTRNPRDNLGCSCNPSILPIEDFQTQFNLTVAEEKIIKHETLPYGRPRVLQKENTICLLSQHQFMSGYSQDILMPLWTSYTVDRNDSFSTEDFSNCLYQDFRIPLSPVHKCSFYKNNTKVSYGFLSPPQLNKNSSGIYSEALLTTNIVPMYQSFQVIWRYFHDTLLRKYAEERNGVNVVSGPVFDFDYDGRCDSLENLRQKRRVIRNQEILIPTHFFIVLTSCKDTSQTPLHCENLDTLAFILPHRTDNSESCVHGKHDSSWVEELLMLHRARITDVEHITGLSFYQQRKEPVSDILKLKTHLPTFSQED
In words: Inhibition of ENPP1 (unknown origin) assessed as reduction in ATP hydrolysis by AMP-Glo assay.

For data set [7], the target named is T3, Ectonucleotide pyrophosphatase/phosphodiesterase family member 3. In words: Inhibition of ENPP3 (unknown origin).
Data set [8] shares this target. In words: Inhibition of ENPP3 (unknown origin) assessed as reduction in ATP hydrolysis by AMP-Glo assay.
The target of data set [9] is T1, Ectonucleotide pyrophosphatase/phosphodiesterase family member 3 (Homo sapiens). In words: Inhibition of ENPP3 (unknown origin) at 50 uM relative to control.
The target in data set [10] is T5, Autotaxin (Homo sapiens, UniProt Q13822). In words: Inhibition of ENPP2 (unknown origin).
Data set [11] has as its target T6, Glycerophosphocholine cholinephosphodiesterase ENPP6 (Homo sapiens) (UniProt Q6UWR7).
T6 sequence (whole entry): T2 sequence (Q6UWR7 whole entry)
In words: Inhibition of ENPP6 (unknown origin) at 50 uM relative to control.

In data set [12] the target is T5, Autotaxin. In words: Inhibition of ENPP2 (unknown origin) at 50 uM relative to control.
For data set [13], the target named is T4, Ectonucleotide pyrophosphatase/phosphodiesterase family member 1. In words: Inhibition of ENPP1 (unknown origin) assessed as reduction in 2'3'-cGAMP hydrolysis by AMP-Glo assay.
The target is the same in data set [14]. In words: Inhibition of ENPP1 (unknown origin).

Turning to `Cc1nc2ncnn2c(N(C)C)c1Cc1cccc(O)c1`, the Activity result (in the data set on THP1-Dual; in data set [5]) was “Non-Toxic” each time. Moreover, the inhibition – broadly, how much of the control response was suppressed – in data set [1] was less than 1%; in [4] it was less than 1%; in [9], 24%; in [11], less than 1%; against Autotaxin [12], 31%. The IC50 (as a rule, the concentration at which inhibition is half-maximal) in [2] is more than 50 µM; in [3], more than 50 µM; in data set [6], 1.8 µM; in data set [7], more than 50 µM; in data set [8], more than 50 µM; against Autotaxin [10], more than 50 µM. In addition, the figures for the IC50 in [13] and in data set [14] were 1.4 µM and 0.42 µM, respectively.

Consider `Cc1nc2ncnn2c(N(C)C)c1Cc1cccc(N)c1`, for which the Activity entry (in the data set on THP1-Dual; in data set [5]) was “Non-Toxic” each time. Also, the inhibition was 2.2% in data set [1]; 4.2% in [4]; 24% in data set [9]; less than 1% in [11]; 11% at Autotaxin [12]. The IC50 in data set [2] is more than 50 µM; in data set [3] it was more than 50 µM; in [6], 0.85 µM; in data set [7], more than 50 µM; in data set [8], more than 50 µM; on Autotaxin [10], more than 50 µM. Further, the half-inhibitory concentration (IC50) in data set [13] turned out to be 0.82 µM; in data set [14], 0.26 µM.

As for `Cc1nc2ncnn2c(NCc2ccc(C(=O)O)cc2)c1Cc1cccc(N)c1`, the Activity result (with THP1-Dual; in [5]) was “Non-Toxic” each time. Further, the inhibition in [1] is less than 1%; in data set [4], 1.6%; in [9], 33%; in data set [11], less than 1%; on Autotaxin [12] it was 8.9%. Besides, the IC50 in [2] is more than 50 µM; in [3], more than 50 µM; in data set [6] it was 8.6 µM; in data set [7], more than 50 µM; in data set [8] it was more than 50 µM; on Autotaxin [10], more than 50 µM. In addition, the 50% inhibitory concentration (IC50) in [13] is 9 µM; in data set [14], 1.1 µM.
